This passage reports EC50 results from patent US20230271941A1, “COMPOUNDS AND COMPOSITIONS FOR TREATING CONDITIONS ASSOCIATED WITH STING ACTIVITY” (IFM Due, Inc., priority 2020, published 2023).

Each structure is given as a SMILES string.

The experiment deals with T1, hSTING (Homo sapiens, UniProt Q86WV6, G230A/H232R/R293Q/R71H).
T1 construct: host or cells: THP1-Dual KO-IFNAR2 cells
The experiment in a line: STING reporter assay: THP1-Dual KO-IFNAR2 cells stimulated with 2′3′cGAMP, luciferase reporter activity. The experiment is classed as cell-based. The following applies: 15 μM 2′3′cGAMP transfected with Lipofectamine 2000, 24 h, luciferase reporter (QUANTI-Luc). The procedure:
STING pathway activation by the compounds described herein was measured using THP1-Dual™ cells (KO-IFNAR2).
THP1-Dual™ KO-IFNAR2 Cells (obtained from invivogen) were maintained in RPMI, 10% FCS, 5 ml P/S, 2 mM L-glut, 10 mM Hepes, and 1 mM sodium pyruvate. Compounds were spotted in empty 384 well tissue culture plates (Greiner 781182) by Echo for a final concentration of 0.0017-100 μM. Cells were plated into the TC plates at 40 μL per well, 2×10E6 cells/mL. For activation with STING ligand, 2′3′cGAMP (MW 718.38, obtained from Invivogen), was prepared in Optimem media.
The following solutions were prepared for each 1×384 plate: • Solution A: 2 mL Optimem with one of the following stimuli: • 60 μL of 10 mM 2′3′cGAMP→150 μM stock • Solution B: 2 mL Optimem with 60 μL Lipofectamine 2000→Incubate 5 min at RT
2 mL of solution A and 2 ml Solution B was mixed and incubated for 20 min at room temperature (RT). 20 μL of transfection solution (A+B) was added on top of the plated cells, with a final 2′3′cGAMP concentration of 15 μM. The plates were then centrifuged immediately at 340 g for 1 minute, after which they were incubated at 37° C., 5% CO2, >98% humidity for 24 h. Luciferase reporter activity was then measured. EC50 values were calculated by using standard methods known in the art.
Luciferase reporter assay: 10 μL of supernatant from the assay was transferred to white 384-plate with flat bottom and squared wells. One pouch of QUANTI-Luc™ Plus was dissolved in 25 mL of water. 100 μL of QLC Stabilizer per 25 mL of QUANTI-Luc™Plus solution was added. 50 μL of QUANTI-Luc™ Plus/QLC solution per well was then added. Luminescence was measured on a Platereader (e.g., Spectramax I3X (Molecular Devices GF3637001)).
Luciferase reporter activity was then measured. EC50 values were calculated by using standard methods known in the art.
A general note: A reporter such as luciferase makes a cellular process visible.

T1 sequence (Q86WV6 whole entry R71H/G230A/H232R/R293Q): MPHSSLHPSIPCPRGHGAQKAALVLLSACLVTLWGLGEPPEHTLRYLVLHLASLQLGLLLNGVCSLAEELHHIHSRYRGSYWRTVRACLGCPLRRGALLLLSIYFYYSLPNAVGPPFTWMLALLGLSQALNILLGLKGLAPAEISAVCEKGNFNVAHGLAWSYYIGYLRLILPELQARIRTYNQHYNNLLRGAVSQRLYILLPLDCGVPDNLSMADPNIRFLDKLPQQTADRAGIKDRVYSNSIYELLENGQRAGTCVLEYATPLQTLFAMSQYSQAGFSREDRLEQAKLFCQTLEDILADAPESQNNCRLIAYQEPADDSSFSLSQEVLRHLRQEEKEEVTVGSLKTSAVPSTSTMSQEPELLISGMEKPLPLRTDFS

Regarding `O=C(Nc1c[nH]c2cc(F)c(Cl)cc12)c1cn(Cc2ccc(C(F)(F)F)cc2)nn1` [Compound 168, N-(5-chloro-6-fluoro-1H-indol-3-yl)-1-(4-(trifluoromethyl)benzyl)-1H-1,2,3-triazole-4-carboxamide], the EC50 (as a rule, the concentration giving half of the maximal effect) lay within 200 to 1000 nM.
The compound `O=C(Nc1c[nH]c2cnccc12)c1cnn(Cc2ccc(C(F)(F)F)cc2)c1` [Compound 144] showed an EC50 of 5000 to 100000 nM.
Turning to `O=C(Nc1c[nH]c2ccccc12)c1cn(-c2ccc(C(F)(F)F)c(Cl)c2)cn1` [Compound 135, 1-(3-chloro-4-(trifluoromethyl)phenyl)-N-(1H-indol-3-yl)-1H-imidazole-4-carboxamide], the EC50 lay within 200 to 1000 nM.
The compound `O=C(Nc1c[nH]c2cc(F)c(F)cc12)c1cc(CC2CCN(CC(F)(F)F)CC2)on1` [Compound 152, N-(5,6-difluoro-1H-indol-3-yl)-5-((1-(2,2,2-trifluoroethyl)piperidin-4-yl)methyl)isoxazole-3-carboxamide] had an EC50 of 200 to 1000 nM.
Consider `O=C(Nc1c[nH]c2ccc(Cl)cc12)c1cn(-c2cnc(NCC(F)(F)F)c(F)c2)nn1` [Compound 158, N-(5-chloro-1H-indol-3-yl)-1-(5-fluoro-6-((2,2,2-trifluoroethyl)amino)pyridin-3-yl)-1H-1,2,3-triazole-4-carboxamide], for which the EC50 is 200 to 1000 nM.
`O=C(Nc1c[nH]c2ccccc12)c1cn(-c2cnc(OCC(F)(F)F)c(F)c2)nn1` [Compound 157, 1-(5-fluoro-6-(2,2,2-trifluoroethoxy)pyridin-3-yl)-N-(1H-indol-3-yl)-1H-1,2,3-triazole-4-carboxamide] returned an EC50 of 5000 to 100000 nM.
With `O=C(Nc1c[nH]c2ccc(F)cc12)c1cnn(Cc2ccc(C(F)(F)F)cc2)c1` [Compound 115, N-(5-fluoro-1H-indol-3-yl)-1-(4-(trifluoromethyl)benzyl)-1H-pyrazole-4-carboxamide] the figure was 200 to 1000 nM; with `Cc1cc(-c2cc(C(=O)Nc3c[nH]c4cc(F)c(F)cc34)n[nH]2)ccc1Cl` [Compound 164, 5-(4-chloro-3-methylphenyl)-N-(5,6-difluoro-1H-indol-3-yl)-1H-pyrazole-3-carboxamide], 200 to 1000 nM.
As to `CC(C)n1cc(-c2ccc3[nH]cc(NC(=O)c4cn(Cc5ccc(C(F)(F)F)cc5)cn4)c3c2)cn1` [Compound 138, N-(5-(1-isopropyl-1H-pyrazol-4-yl)-1H-indol-3-yl)-1-(4-(trifluoromethyl)benzyl)-1H-imidazole-4-carboxamide], the concentration giving a half-maximal response (EC50) is 200 to 1000 nM.
`O=C(Nc1c[nH]c2cc(Cl)c(F)cc12)c1cnn(Cc2ccc(C(F)(F)F)cc2)c1` [Compound 107, N-(6-chloro-5-fluoro-1H-indol-3-yl)-1-(4-(trifluoromethyl)benzyl)-1H-pyrazole-4-carboxamide] had an EC50 of 200 to 1000 nM.
Take `O=C(Nc1c[nH]c2cc(F)c(F)cc12)c1cc(-c2ccccn2)on1` [Compound 109, N-(5,6-difluoro-1H-indol-3-yl)-5-(pyridin-2-yl)-1,2-oxazole-3-carboxamide]: the EC50 is 200 to 1000 nM.
For the compound `O=C(Nc1c[nH]c2cc(F)c(F)cc12)c1cnn(C2CCCCC2)c1` [Compound 116, 1-cyclohexyl-N-(5,6-difluoro-1H-indol-3-yl)-1H-pyrazole-4-carboxamide], the EC50 was 1000 to 5000 nM.
Compound `O=C(Nc1c[nH]c2ccc(Cl)cc12)c1cn(-c2cnc(OCC(F)(F)F)c(F)c2)nn1` [Compound 159, N-(5-chloro-1H-indol-3-yl)-1-(5-fluoro-6-(2,2,2-trifluoroethoxy)pyridin-3-yl)-1H-1,2,3-triazole-4-carboxamide] registered an EC50 of 200 to 1000 nM.
With `O=C(Nc1c[nH]c2cc(F)c(F)cc12)c1cc(-c2cccnc2)[nH]n1` [Compound 119, N-(5,6-difluoro-1H-indol-3-yl)-5-(pyridin-3-yl)-1H-pyrazole-3-carboxamide] the figure was 5000 to 100000 nM.
Compound `O=C(Nc1c[nH]c2cc(F)c(F)cc12)c1cnn(CC2CCC(F)(F)CC2)c1` [Compound 122, N-(5,6-difluoro-1H-indol-3-yl)-1-((4,4-difluorocyclohexyl)methyl)-1H-pyrazole-4-carboxamide] displayed a concentration giving a half-maximal response (EC50) of 200 to 1000 nM.
The compound `O=C(Nc1c[nH]c2cc(F)c(F)cc12)c1cn(-c2ccnc(COCC(F)(F)F)c2)nn1` [Compound 156, N-(5,6-difluoro-1H-indol-3-yl)-1-(2-((2,2,2-trifluoroethoxy)methyl)pyridin-4-yl)-1H-1,2,3-triazole-4-carboxamide] displayed an EC50 of 1000 to 5000 nM.
Regarding `O=C(Nc1c[nH]c2ccccc12)c1cn(Cc2ccc(C(F)(F)F)cn2)cn1` [Compound 130, N-(1H-indol-3-yl)-1-((5-(trifluoromethyl)pyridin-2-yl)methyl)-1H-imidazole-4-carboxamide], the EC50 was in the range of 1000 to 5000 nM.
The compound `O=C(Nc1c[nH]c2cc(F)c(F)cc12)c1cc(Cc2ccc(C(F)(F)F)cc2)on1` [Compound 153, N-(5,6-difluoro-1H-indol-3-yl)-5-(4-(trifluoromethyl)benzyl)isoxazole-3-carboxamide] returned an EC50 of 200 to 1000 nM.
With `O=C(Nc1c[nH]c2cc(F)c(F)cc12)c1cc(-c2ccc(F)cc2F)on1` [Compound 170, N-(5,6-difluoro-1H-indol-3-yl)-5-(2,4-difluorophenyl)isoxazole-3-carboxamide] the figure was 200 to 1000 nM; with `Cn1nc(C(=O)Nc2c[nH]c3cc(F)c(F)cc23)cc1Cc1ccc(C(F)(F)F)cc1` [Compound 113, N-(5,6-difluoro-1H-indol-3-yl)-1-methyl-5-(4-(trifluoromethyl)benzyl)-1H-pyrazole-3-carboxamide], 200 to 1000 nM.
In turn, `O=C(Nc1c[nH]c2cc(F)c(F)cc12)c1cc(CC2CCN(CC(F)(F)F)CC2)no1` [Compound 155, N-(5,6-difluoro-1H-indol-3-yl)-3-((1-(2,2,2-trifluoroethyl)piperidin-4-yl)methyl)isoxazole-5-carboxamide] returned an EC50 of 40 to 200 nM.
The value for `CC(C)n1cc(-c2cc(F)c3[nH]cc(NC(=O)c4cnn(Cc5ccc(C(F)(F)F)cc5)c4)c3c2)cn1` [Compound 146, N-(7-fluoro-5-(1-isopropyl-1H-pyrazol-4-yl)-1H-indol-3-yl)-1-(4-(trifluoromethyl)benzyl)-1H-pyrazole-4-carboxamide] was 200 to 1000 nM; that for `O=C(Nc1c[nH]c2ccccc12)c1cn(Cc2ccc(C(F)(F)F)c(Cl)c2)cn1` [Compound 136, 1-(3-chloro-4-(trifluoromethyl)benzyl)-N-(1H-indol-3-yl)-1H-imidazole-4-carboxamide] was 200 to 1000 nM; that for `Cc1cc(Cn2cc(C(=O)Nc3c[nH]c4cc(F)c(F)cc34)cn2)cnc1OCC(F)(F)F` [Compound 163, N-(5,6-difluoro-1H-indol-3-yl)-1-((5-methyl-6-(2,2,2-trifluoroethoxy)pyridin-3-yl)methyl)-1H-pyrazole-4-carboxamide] was 40 to 200 nM.
Take `O=C(Nc1c[nH]c2cc(F)c(F)cc12)c1cc(-c2ccccc2)[nH]n1` [Compound 175, N-(5,6-difluoro-1H-indol-3-yl)-5-phenyl-1H-pyrazole-3-carboxamide]: the EC50 fell in the range of 200 to 1000 nM.
For `O=C(Nc1c[nH]c2cc(F)c(F)cc12)c1cc(-c2ccncc2)[nH]n1` [Compound 176, N-(5,6-difluoro-1H-indol-3-yl)-5-(pyridin-4-yl)-1H-pyrazole-3-carboxamide], the EC50 was in the range of 5000 to 100000 nM.
With `O=C(Nc1c[nH]c2ccc(Oc3ccccc3)cc12)c1cnn(Cc2ccc(C(F)(F)F)cc2)c1` [Compound 154, N-(5-phenoxy-1H-indol-3-yl)-1-(4-(trifluoromethyl)benzyl)-1H-pyrazole-4-carboxamide] the figure was 40 to 200 nM; with `CC(c1ccc(C(F)(F)F)cc1)n1cc(C(=O)Nc2c[nH]c3cc(F)c(F)cc23)cn1` (single isomer, unassigned) [Compound 120, (R or S)-N-(5,6-difluoro-1H-indol-3-yl)-1-(1-(4-(trifluoromethyl)phenyl)ethyl)-1H-pyrazole-4-carboxamide], 200 to 1000 nM.
`O=C(Nc1c[nH]c2cc(F)c(F)cc12)c1cc(Cc2ccc(C(F)(F)F)cc2)no1` [Compound 151, N-(5,6-difluoro-1H-indol-3-yl)-3-(4-(trifluoromethyl)benzyl)isoxazole-5-carboxamide] yielded a concentration for a half-maximal effect (EC50) of 200 to 1000 nM.
With `O=C(Nc1c[nH]c2cc(F)ccc12)c1ccn(Cc2ccc(C(F)(F)F)cc2)n1` [Compound 103, N-(6-fluoro-1H-indol-3-yl)-1-(4-(trifluoromethyl)benzyl)-1H-pyrazole-3-carboxamide] the figure was 200 to 1000 nM.
For the compound `O=C(Nc1c[nH]c2ccc(-c3ccc(CO)c(F)c3)cc12)c1cn(Cc2ccc(C(F)(F)F)cc2)cn1` [Compound 137, N-(5-(3-fluoro-4-(hydroxymethyl)phenyl)-1H-indol-3-yl)-1-(4-(trifluoromethyl)benzyl)-1H-imidazole-4-carboxamide], the EC50 was 1000 to 5000 nM.
